Test results published in patent US11505523B2, “HDAC8 inhibitors for treating cancer” (City of Hope, priority 2013, dated 2022).
Where “and” joins values, the source holds several entries; their conditions need not be identical. Equal entries are not always repeated.

Legend:
HDAC8 = HDAC8 (Homo sapiens (Human), UniProt Q9BY41); assay: Inhibition of HDAC8; assay type: biochemical; conditions: for IC50: mean SD of three determinations; for IC50 PCI34051/IC50 compound: inhibition of HDAC8, relative potency (Tables 1-3); for A (relative potency to PCI34051): inhibition of HDAC8, footnote: (Tables 11-13); for HDAC8 inhibitory activity compared with PCI34051: result in words
HeLa nuclear HDACs = assay: Inhibition of HeLa nuclear HDACs (HeLa nuclear extract, mainly HDACs1-3); assay type: biochemical; conditions: read-out: HeLa HDAC IC50
MV4-11 cells [1] = assay: Survival/apoptosis of MV4-11 AML cells by Annexin V labeling; assay type: cell-based, human; conditions: Homo sapiens, read-out: MV4-11 Apoptosis IC50
MV4-11 cells [2] = assay: Proliferation of MV4-11 cells, luminescent cell viability assay; assay type: cell-based, human; conditions: Homo sapiens, read-out: MV4-11 Proliferation IC50
OCI-AML3 cells = assay: Survival/apoptosis of OCI-AML3 AML cells by Annexin V labeling; assay type: cell-based, human; conditions: Homo sapiens, OCI-AML-3, 48 h, read-out: OCI-AML3 Apoptosis IC50
MOLM13 cells [3] = assay: Proliferation of MOLM13 cells, luminescent cell viability assay; assay type: cell-based, human; conditions: Homo sapiens, read-out: MOLM13 Proliferation IC50
MOLM13 cells [4] = assay: Survival/apoptosis of MOLM13 AML cells by Annexin V labeling; assay type: cell-based, human; conditions: Homo sapiens, read-out: MOLM13 Apoptosis IC50
H1299 cells = assay: Cytotoxicity / anti-proliferative activity in H1299 lung cancer cells; conditions: read-out: Cytotoxicity IC50 H1299; mean SD of three determinations
CL1-5 cells = assay: Cytotoxicity / anti-proliferative activity in CL1-5 lung cancer cells; conditions: read-out: Cytotoxicity IC50 Cl1-5; mean SD of three determinations
Cl1-1 cells = assay: Cytotoxicity / anti-proliferative activity in CL1-1 lung cancer cells; conditions: read-out: Cytotoxicity IC50 Cl1-1; mean SD of three determinations

Sequence of HDAC8 (Q9BY41 whole entry): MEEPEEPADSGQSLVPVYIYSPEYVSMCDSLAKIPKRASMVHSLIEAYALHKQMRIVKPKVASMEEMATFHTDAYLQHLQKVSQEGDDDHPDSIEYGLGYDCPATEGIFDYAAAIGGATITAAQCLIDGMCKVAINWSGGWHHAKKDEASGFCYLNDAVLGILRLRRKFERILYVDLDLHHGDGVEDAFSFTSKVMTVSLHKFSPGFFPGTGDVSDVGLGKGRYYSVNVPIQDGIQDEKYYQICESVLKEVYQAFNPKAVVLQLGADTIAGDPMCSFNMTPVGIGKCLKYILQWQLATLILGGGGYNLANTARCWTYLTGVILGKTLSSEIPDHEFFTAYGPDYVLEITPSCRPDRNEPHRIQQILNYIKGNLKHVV

Row | IC50 (HeLa nuclear HDACs) [µM] | IC50 PCI34051/IC50 compound (HDAC8) | A (relative potency to PCI34051) (HDAC8) | SMILES | IC50 (HDAC8) | also measured
1 | > 10 | – | – | COc1ccc(OC(C)COc2cc(OC)ccc2/C=C/C(=O)NO)cc1 (stereo not shown) [Compound 18b, (E)-N-Hydroxy-2-(2-(4-methoxyphenoxyoxy)propoxy)-4-methoxycinnamide] | 0.191 ± 0.0022 µM | –
2 | > 10 | – | – | COc1ccc(OCCOc2cc(OC)ccc2/C=C/C(=O)NO)cc1 [Compound 18a, (E)-N-Hydroxy-2-(2-(4-methoxyphenoxyoxy)ethoxy)-4-methoxycinnamide] | 0.122 ± 0.0035 µM | –
3 | > 10 | – | – | COc1ccc(/C=C/C(=O)NO)c(-c2cccc3ccccc23)c1 [Compound 22c, (E)-N-Hydroxy-4-methoxy-2-(naphthalen-1-yl)cinnamide] | 0.078 ± 0.0043 µM | –
4 | > 10 | – | – | CCCC(COc1cc(OC)ccc1/C=C/C(=O)NO)Oc1ccc(OC)cc1 (stereo not shown) [Compound 18d, (E)-N-Hydroxy-2-(2-(4-methoxyphenoxyoxy)pentyloxy)-4-methoxycinnamide] | 0.2 ± 0.0065 µM | –
5 | > 10 | – | – | COc1ccc(/C=C/C(=O)NO)c(-c2ccc(C(=O)c3ccccc3)cc2)c1 [Compound 22f, (E)-N-Hydroxy-4-methoxy-2-(4-benzoylphenyl)cinnamide] | 0.0418 ± 0.0033 µM | HDAC8 inhibitory activity compared with PCI34051 (HDAC8): superior to PCI34051; IC50 (H1299 cells): 0.0084 ± 0.0002 µM; IC50 (CL1-5 cells): > 0.01 µM; IC50 (Cl1-1 cells): > 0.01 µM

Continued, molecule first:

Row | SMILES | IC50 (HeLa nuclear HDACs) [µM] | IC50 PCI34051/IC50 compound (HDAC8) | A (relative potency to PCI34051) (HDAC8) | IC50 (HDAC8) | also measured
6 | COc1ccc(/C=C/C(=O)NO)c(-c2ccc(F)cc2)c1 [Compound 5d] | > 10 | 1.90 | 1.90 | – | –
7 | COc1ccc(/C=C/C(=O)NO)c(-c2cccc(Cl)c2)c1 [Compound 5c] | > 10 | 1.17 | 1.17 | – | –
8 | COc1ccc(/C=C/C(=O)NO)c(Nc2ccc(OC)c(OC)c2)c1 [Compound 6e] | > 10 | 0.44 | 0.44 | – | –
9 | COc1ccc(Nc2cc(OC)ccc2/C=C/C(=O)NO)cc1 [Compound 6d] | > 10 | 0.30 | 0.30 | – | –
10 | COc1ccc(/C=C/C(=O)NO)c(-c2cc(OC)c(OC)c(OC)c2)c1 [Compound 5a] | > 10 | 0.29 | 0.29 | – | –
11 | COc1ccc(/C=C/C(=O)NO)c(Nc2ccccc2OC)c1 [Compound 6b] | > 10 | 0.17 | 0.17 | – | –
12 | COc1ccc(/C=C/C(=O)NO)c(-c2ccc3c(c2)OCO3)c1 [Compound 5e] | 8.55 ± 0.00012 | 1.86 | 1.86 | – | IC50 (MV4-11 cells [1]; MV4-11, 48 h): 11.9 µM; IC50 (MV4-11 cells [2]; MV4-11, 48 h): 7.49 µM; IC50 (OCI-AML3 cells): 12.5 µM; IC50 (MOLM13 cells [3]; MOLM-13, 48 h): 3.36 µM; IC50 (MOLM13 cells [4]; MOLM-13, 48 h): 11.7 µM
13 | CCCOc1ccc(/C=C/C(=O)NO)c(-c2ccccc2)c1 [Compound 27a, (E)-N-Hydroxy-4-propoxy-2-phenylcinnamide] | > 10 | – | – | 0.133 ± 0.0126 µM | –
14 | COc1ccc(/C=C/C(=O)NO)c(-c2cnc3ccccc3c2)c1 [Compound 5h] | 0.836 ± 0.0091 | 0.63 | 0.63 | – | IC50 (MV4-11 cells [1]; MV4-11, 48-hr, Annexin V labeling): ~22700 µM; IC50 (MV4-11 cells [2]; MV4-11, 48-hr, luminescent cell viability assay): 16.6 µM; IC50 (MOLM13 cells [3]; MOLM-13, 48-hr, luminescent cell viability assay): 7.17 µM; IC50 (MOLM13 cells [4]; MOLM-13, 48-hr, Annexin V labeling): 90.9 µM
15 | COc1ccc(COc2cc(OC)ccc2/C=C/C(=O)NO)cc1 [Compound 13d, (E)-N-Hydroxy-2-(4-methoxybenzyloxy)-4-methoxycinnamide] | > 10 | – | – | 0.397 ± 0.0127 µM | –
16 | COc1ccc(/C=C/C(=O)NO)c(Nc2ccccc2)c1 [Compound 6a] | > 10 | 0.40 | 0.40 | – | –
17 | COc1cccc(Nc2cc(OC)ccc2/C=C/C(=O)NO)c1 [Compound 6c] | > 10 | 0.44 | 0.44 | – | –
18 | COc1ccc(/C=C/C(=O)NO)c(-c2cccc3c2oc2ccccc23)c1 [Compound 22g, (E)-N-Hydroxy-4-methoxy-2-(dibenzofuran-4-yl)cinnamide] | > 10 | – | – | 0.0477 ± 0.0007 µM | HDAC8 inhibitory activity compared with PCI34051 (HDAC8): superior to PCI34051; IC50 (H1299 cells): 0.0066 ± 0.0007 µM; IC50 (CL1-5 cells): 0.0087 ± 0.0001 µM; IC50 (Cl1-1 cells): 0.0085 ± 0.0012 µM
19 | O=C(/C=C/c1ccc(-c2ccccc2)cc1-c1ccccc1)NO [Compound 27d, (E)-N-Hydroxy-2,4-diphenylcinnamide] | > 10 | – | – | 0.1749 ± 0.0002 µM | –
20 | COc1ccc(/C=C/C(=O)NO)c(-c2cncc3ccccc23)c1 [Compound 5g] | 0.7984 ± 0.0003 | 0.28 | 0.28 | – | –
21 | CCCCOc1ccc(/C=C/C(=O)NO)c(-c2ccccc2)c1 [Compound 27b, (E)-N-Hydroxy-4-butoxy-2-phenylcinnamide] | > 10 | – | – | 0.289 ± 0.0301 µM | –
22 | COc1cc(Nc2cc(F)ccc2/C=C/C(=O)NO)cc(OC)c1OC [Compound 15a] | > 10 | 0.38 | 0.38 | – | –
23 | COc1cc(Nc2ncccc2/C=C/C(=O)NO)cc(OC)c1OC [Compound 21] | > 10 | 0.68 | 0.68 | – | –
24 | COc1ccc(/C=C/C(=O)NO)c(-c2ccc(Oc3ccccc3)cc2)c1 [Compound 22e, (E)-N-Hydroxy-4-methoxy-2-(4-phenoxyphenyl)cinnamide] | > 10 | – | – | 0.174 ± 0.0059 µM | fold less potent than 22a (HDAC8) (HDAC8): three
25 | CCCCCOc1ccc(/C=C/C(=O)NO)c(-c2ccccc2)c1 [Compound 27c, (E)-N-Hydroxy-4-pentoxy-2-phenylcinnamide] | > 10 | – | – | 0.186 ± 0.0598 µM | –
26 | COc1ccc(/C=C/C(=O)NO)c(-c2cccc3[nH]ccc23)c1 [Compound 5f] | > 10 | 0.64 | 0.64 | – | –
27 | COc1cc(Nc2cc(C(F)(F)F)ccc2/C=C/C(=O)NO)cc(OC)c1OC [Compound 15b] | > 10 | 0.55 | 0.55 | – | –
28 | COc1ccc(/C=C/C(=O)NO)c(Oc2cc(OC)c(OC)c(OC)c2)c1 [Compound 25] | > 10 | 0.49 | 0.49 | – | –
29 | COc1cc(Nc2c(/C=C/C(=O)NO)ccc(OC)c2OC)cc(OC)c1OC [Compound 15d] | > 10 | 0.44 | 0.44 | – | –
30 | COc1ccc(/C=C/C(=O)NO)c(OCc2ccc(Br)cc2)c1 [Compound 13c, (E)-N-Hydroxy-2-(4-bromobenzyloxy)-4-methoxycinnamide] | > 10 | – | – | – | –
31 | COc1ccc(/C=C/C(=O)NO)c(Nc2cc(OC)c(OC)c(OC)c2)c1 [Compound 6f] | > 10 | 0.24 | 0.24 | – | –
32 | COc1ccc(/C=C/C(=O)NO)c(-c2cccs2)c1 [Compound 5b] | > 10 | 1.43 | 1.43 | – | IC50 (MV4-11 cells [1]; MV4-11, 48 h): 0.524 µM; IC50 (MV4-11 cells [2]; MV4-11, 48 h): 0.0825 µM; IC50 (OCI-AML3 cells): 2.35 µM; IC50 (MOLM13 cells [3]; MOLM-13, 48 h): 0.0533 µM; IC50 (MOLM13 cells [4]; MOLM-13, 48 h): 0.345 µM
33 | COc1ccc(/C=C/C(=O)NO)c(-c2ccccc2)c1 [Compound 22a, (E)-N-Hydroxy-4-methoxy-2-phenylcinnamide] | > 10 | – | – | 0.072 µM and 0.0724 µM | –
34 | COc1ccc(/C=C/C(=O)NO)c(OCc2ccccc2)c1 [Compound 13a, (E)-N-Hydroxy-2-benzyloxy-4-methoxycinnamide] | > 10 | – | – | 0.207 ± 0.0134 µM | –
